{"source": "patent US9943543B2", "about": "“Treating male infertility secondary to sperm oxidative stress” (priority 2009, dated 2018)", "origin": "cited, not measured here", "data": [{"smiles": "CCC(=O)O[C@H](CC(=O)[O-])C[N+](C)(C)C", "note": "[Propionyl-L-carnitine]", "values": [{"measurement": "time to peak concentrations", "setting": "after oral administration", "value": "about 1 hour"}, {"measurement": "time of rise in L-carnitine plasma levels after administration", "setting": "after oral administration of propionyl-L-carnitine", "value": "2 to 6", "unit": "h"}]}]}
